Laboratory results reported in publication PMC3326594 (Journal of Medicinal Chemistry, 2012).

Tests used:
P-gp = P-gp (Homo sapiens, UniProt P08183); conditions: for LE (ligand efficiency): binding free energy from IC50 per heavy atom, 310 K; for LipE (lipophilic efficiency): from pIC50 and clogP (eq 5)
hERG potassium channel = conditions: hERG blockers from literature; cited from earlier work
P-glycoprotein (P-gp) = P-glycoprotein (P-gp) (Homo sapiens, UniProt P08183); test: Inhibition of daunorubicin efflux in multidrug resistant CCRF-CEM vcr 1000 cells; assay type: cell-based
[1] = pIC50 calcd, predicted from the clogP/pIC50 correlation line (Figure 2)

Sequence of P-gp (P08183 whole entry): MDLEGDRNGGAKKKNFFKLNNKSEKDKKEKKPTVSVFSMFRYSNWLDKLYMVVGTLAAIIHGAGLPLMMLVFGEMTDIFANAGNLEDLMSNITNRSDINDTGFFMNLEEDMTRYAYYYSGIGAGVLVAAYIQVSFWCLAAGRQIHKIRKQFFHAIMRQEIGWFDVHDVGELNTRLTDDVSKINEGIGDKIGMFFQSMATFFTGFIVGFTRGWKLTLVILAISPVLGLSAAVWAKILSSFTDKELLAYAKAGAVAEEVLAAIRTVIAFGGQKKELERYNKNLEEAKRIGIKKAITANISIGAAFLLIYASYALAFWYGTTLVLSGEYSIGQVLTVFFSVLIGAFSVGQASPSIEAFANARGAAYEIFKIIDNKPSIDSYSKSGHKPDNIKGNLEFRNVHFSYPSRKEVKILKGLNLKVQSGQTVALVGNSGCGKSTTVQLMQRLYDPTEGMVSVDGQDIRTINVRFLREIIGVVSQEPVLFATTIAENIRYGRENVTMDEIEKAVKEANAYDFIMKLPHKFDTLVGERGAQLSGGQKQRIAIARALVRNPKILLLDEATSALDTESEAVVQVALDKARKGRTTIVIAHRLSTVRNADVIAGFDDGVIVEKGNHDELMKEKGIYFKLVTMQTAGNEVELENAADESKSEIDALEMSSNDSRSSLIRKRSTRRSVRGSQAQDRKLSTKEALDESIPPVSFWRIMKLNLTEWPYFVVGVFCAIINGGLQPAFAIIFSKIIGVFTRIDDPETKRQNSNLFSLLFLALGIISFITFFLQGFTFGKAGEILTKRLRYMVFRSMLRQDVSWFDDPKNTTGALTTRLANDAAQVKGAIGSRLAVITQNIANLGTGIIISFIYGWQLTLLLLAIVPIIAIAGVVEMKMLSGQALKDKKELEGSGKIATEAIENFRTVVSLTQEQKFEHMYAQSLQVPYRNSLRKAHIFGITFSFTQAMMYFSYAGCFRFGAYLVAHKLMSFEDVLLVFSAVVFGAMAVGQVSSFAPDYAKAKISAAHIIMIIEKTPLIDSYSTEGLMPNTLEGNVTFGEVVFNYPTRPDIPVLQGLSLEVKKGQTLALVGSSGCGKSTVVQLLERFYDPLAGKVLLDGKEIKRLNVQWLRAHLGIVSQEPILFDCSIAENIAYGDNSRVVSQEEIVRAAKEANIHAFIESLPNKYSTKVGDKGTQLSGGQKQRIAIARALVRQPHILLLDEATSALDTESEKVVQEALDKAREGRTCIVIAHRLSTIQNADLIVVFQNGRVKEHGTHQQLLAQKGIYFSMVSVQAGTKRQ
Sequence of P-glycoprotein (P-gp) (P08183 whole entry): as above

Compound	LE (ligand efficiency) (P-gp) [kcal per heavy atom]	LipE (lipophilic efficiency) (P-gp)	further results
CCOC/C=C/c1ccc(-c2nc(-c3ccc(NC(C)C)cc3)c(-c3ccc(NC(C)C)cc3)[nH]2)cc1 [ONT093]	0.29	0.19	–
CN(CCOc1ccc(NS(C)(=O)=O)cc1)CCc1ccc(NS(C)(=O)=O)cc1 [dofetilide]	–	–	potency values (hERG potassium channel): < 10 nM
O=C(CCc1ccccc1)c1ccccc1OCC(O)CN1CCC(O)(c2ccccc2)CC1 (centres unmarked) [GPV062]	0.30	–	–
CCCNCC(O)COc1ccccc1C(=O)c1ccc(C)cc1 (centres unmarked) [Compound 20]	0.35	–	–
O=C(c1ccccc1)c1ccccc1OCC(O)CN1CCCCC1 (centres unmarked) [Compound 12]	0.33	–	–
O=C(c1ccccc1)c1ccccc1OCC(O)CN1CCC(O)(c2ccccc2)CC1 (centres unmarked) [Compound 19]	–	–	IC50 (P-glycoprotein (P-gp); [1]): 1740 nM; factor more active than equilipophilic compound 20 (P-glycoprotein (P-gp); pairwise comparison of IC50, 19 vs 20): ~4 fold
COc1cc2c(cc1OC)CN(CCc1ccc(NC(=O)c3cc(OC)c(OC)cc3NC(=O)c3cnc4ccccc4c3)cc1)CC2 [Tariquidar]	0.22	1.93	–
O=C(c1ccccc1)c1ccccc1OCC(O)CN1CCN(CC(O)COc2ccccc2C(=O)c2ccccc2)CC1 (centres unmarked) [Compound 23]	0.23	–	IC50 (P-glycoprotein (P-gp); [1]): 794 nM; IC50 (P-glycoprotein (P-gp); pIC50 obs, observed, daunorubicin efflux inhibition): 53.7 nM; more active than equilipophilic compound 21 (P-glycoprotein (P-gp); pairwise comparison of IC50, 23 vs 21): about 1 order of magnitude
CC(=O)c1cc(C)ccc1OCC(O)CN1CCN(CC(O)COc2ccccc2C(=O)c2ccccc2)CC1 (centres unmarked) [Compound 24, 1-[2-(3-{4-[3-(2-Benzoyl-phenoxy)-2-hydroxyl-propyl]-piperazine-1-yl}-2-hydroxy-propoxy)-5-methyl-phenyl]-ethanone]	0.18	–	–
O=C(CCc1ccccc1)c1ccccc1OCC(O)CN1CCCCC1 (centres unmarked) [GPV005]	0.33	1.84	–
